The nature of the series: CSF-to-plasma unbound concentration ratio in rat after intravenous administration. It counts as in vivo. The following applies: CSF and plasma (unbound), iv, 15 minutes after intravenous administration, fp by ultracentrifugation method.

Turning to `CC(=O)NCCc1c[nH]c2cc(F)c(OCCOc3ccn(C)n3)cc12` [Example 6, N-[2-(6-fluoro-5-{2-[(1-methyl-1H-pyrazol-3-yl)oxy]ethoxy}-1H-indol-3-yl)ethyl]acetamide], the Kp uu at 0.25 h stood at 0.06.

For the origin of these results see patent US9637451B2, “Indole compound” (ASTELLAS PHARMA INC., priority 2014, dated 2017).
